Assay results reported in US20250154180A1, “CRK-LIKE (CRKL) ADAPTOR PROTEIN INHIBITORS AND METHODS OF MAKING AND USING THE SAME” (Rutgers, The State University of New Jersey, priority 2022, published 2025).

Experiments:
[1] = tested on: Hs578T cells; test: MTT proliferation assay, Hs578T; type: cell-based; conditions: 2.5 μM, 48 hours, vs DMSO
Protocol: MTT assay—The MTT assay was used to detect cell proliferation. Briefly, cells were plated in a 96-well plate at a density of 50,000 cells/well in 200 μl of culture medium with candidate drugs to be tested (DMSO as a negative control). The treated cells were incubated for four hours a 37° C. with a 5% CO2 incubator to allow dark crystals to form at the bottom of the wells. After culturing for 48 hours, […] of MTT reagent was added to each well and mixed gently for one minute. After aspirating the culture medium from each well, 100 μl of crystal dissolving solution was added to each well and incubated for 10 minutes at RT. The signal was quantified by measuring the absorbance in each sample at 570 nm using a microplate reader.

[2] = tested on: PBNK cells killing activity towards SK-Hep1; test: Cr51 release assay, PBNK killing of SK-Hep1; type: cell-based; conditions: 1 uM overnight
Protocol: (§1) PBNK cells were incubated with 1 uM NC5 or Compound III overnight, then cells were harvested for Cr51 release assay to check cell cytotoxicity. […] The star symbol indicates the significance of vehicle control vs. NC5 of the indicated E:T ratios. *p<0.05, **p<0.01, n=3.

[3] = tested on: pCrkL in MDA-MB-231-LUC cells; test: Flow cytometry of intracellular pCrkL/CrkL, MDA-MB-231-LUC; type: cell-based; conditions: three M Pomiferin for six days
Description: The cells were labeled with total CrkL or phosphor-CrkL by Alexa Fluor 647 (AF-647) and stained with secondary antibodies conjugated with AF-647 as staining control. […] The star symbol indicates the significance of vehicle vs. Pomiferin of the indicated concentration. *p<0.05, **p<0.005, ***p<0.0005. Data represent mean±SEM, n=4.
The intracellular pCrkL level from breast cancer cell lines between Pomiferin-treated and vehicle control groups was examined.

[4] = target: CrkL (Homo sapiens, UniProt P46109); type: biochemical
Description: Single-molecule Fluorescence Resonance Energy Transfer (smFRET)—Single-molecule Fluorescence Resonance Energy Transfer (smFRET) was applied to monitor conformations of single molecules. CrkL has two cysteines (a relatively rare amino acid), one in its SH2 and another in SH3C domains. CrkL was mixed with a mixture of equal amounts of Alexa555-maleimide and Alexa647-maleimide (Invitrogen, USA) (10× over protein concentration) to randomly label the two cysteines. The labeled protein was purified from an unreacted dye by gel filtration. Molecules with exactly one donor and acceptor are identified in single-molecule data analysis and used for further analysis. […] The FRET change between non-phosphorylated CrkL and phosphorylated CrkL was measured. The dye-labeled protein was used in in vitro kinase assays with different drugs treatments as described above. smFRET measurements were performed with a prism-type total internal refection microscope (TIRF) where FRET efficiency is calculated from measured donor and acceptor intensities (Id and Ia, respectively) by FRET=Ia/(Id+Ia), as described previously. To surface immobilize 6×His tagged CrkL, the protein was added to the biotinylated 6×His antibody (Thermo Scientific Cat #: MA1-80087) bound to streptavidin, which was adsorbed to a quartz slide. A lipid bilayer was used to passivate the quartz surface. Phosphorylation was performed on the immobilized Crk in situ.
In intramolecular smFRET, non-radiative energy transfer occurs when two fluorophores attached to different parts of one molecule move close together. […] A cysteine-maleimide-based chemistry was used to label both CrkL and mutant (non-phosphorylatable) CrkL-Y207F. CrkL has a cysteine (a relatively rare amino acid) in its SH2 (labeled with AlexaFluor555) and SH3C (labeled with AlexaFluor647). […] Western Blot (WB) and immunoprecipitation (IP) was used to verify that labeled proteins retain the same gross functional properties as wild-type CrkL (e.g., are phosphorylatable and capable of binding SH2 and SH3 ligands). Briefly, site-specific labeled CrkL was mixed with Ab1 in the presence of Mg^2+ and ATP. A single AlphaScreen-identified candidate inhibitor was then added per assay.

[5] = tested on: IL-2 production from human PBMCs; test: IL-2 ELISA, PBMCs; type: cell-based
Protocol: IL-2 ELISA—IL-2 in vitro enzyme-linked immunosorbent assay (ELISA) was used to measure human IL-2 productions. This assay was conducted per the user manual from the kit. In brief, human PBMCs were cultured in R10 medium with 0.5 μg/ml PHA. Then, 100 μl of the standard and sample was added to each well and incubated at 4° C. overnight. A prepared biotin antibody (100 μl) was added to each well and incubated for 1 hour at room temperature. Then, 100 μl prepared streptavidin solution was added and incubated for 45 minutes at room temperature. TMB one-step substrate reagent (100 μl) was then added to each well and incubated for 30 minutes at room temperature. Stop solution (50 μl) was then added to each well, and the results were quantified at 450 nm by Infinite M1000 Pro Plate Reader (Tecan, Switzerland) immediately.
Previous studies have shown that phosphorylated CrkL inhibits immune cell functions. It was then evaluated whether a pCrkL inhibitor could restore immune cell functions. To test this, the production of IL-2 from human PBMCs treated with different concentrations of Pomiferin was quantitated. Phytohemagglutinin (PHA) was used to stimulate the secretion of IL-2 as a positive control group. […] Similar results were obtained from the third donor (FIG. 5B, lower panel).

[6] = tested on: CD147-CAR-NK killing in BXPC3 cells; test: Cr51 release assay, CD147-CAR-NK killing of BXPC3; type: cell-based; conditions: 1 uM overnight
Protocol: In this example, activity of NC5 was evaluated for PBNK and CD147-CAR-NK killing in BXPC3 cells. PBNK or CD147-CAR-NK cells were incubated with 1 uM NC5 overnight, then cells were harvested for Cr51 release assay to check cell cytotoxicity. […] The star symbol indicates the significance of vehicle vs. NC5 of the indicated E:T ratios. *p<0.05, **p<0.01, n=3.

[7] = tested on: PBNK cells killing activity towards MDA-MB-231; test: Cr51 release assay, PBNK killing of MDA-MB-231; type: cell-based; conditions: 1 uM overnight
Protocol: as §1

[8] = Thermodynamic solubility; type: physicochemical; conditions: thermodynamic from solid
Protocol: In this example, solubility measurement assays were performed using a phosphate buffer (also referred to as “PB”) system and a water system to evaluate thermodynamic solubility. The PB system was at a pH of 7.4 to mimic in vivo environments. For the PB system, the values were determined to be NC5: Thermodynamic Solubility pH=7.4<0.42 μg/mL; Compound III: Thermodynamic Solubility pH=7.4<0.48 μg/mL; and Compound I: Thermodynamic Solubility pH=7.4<0.48 μg/mL. Results for the water assay were as follows: NC5: Thermodynamic Solubility Water<0.42 μg/mL; Compound III: Thermodynamic Solubility Water<0.48 μg/mL; and Compound I: Thermodynamic Solubility Water<0.48 μg/mL.

Chain of CrkL (P46109 whole entry, the tested form may be a part): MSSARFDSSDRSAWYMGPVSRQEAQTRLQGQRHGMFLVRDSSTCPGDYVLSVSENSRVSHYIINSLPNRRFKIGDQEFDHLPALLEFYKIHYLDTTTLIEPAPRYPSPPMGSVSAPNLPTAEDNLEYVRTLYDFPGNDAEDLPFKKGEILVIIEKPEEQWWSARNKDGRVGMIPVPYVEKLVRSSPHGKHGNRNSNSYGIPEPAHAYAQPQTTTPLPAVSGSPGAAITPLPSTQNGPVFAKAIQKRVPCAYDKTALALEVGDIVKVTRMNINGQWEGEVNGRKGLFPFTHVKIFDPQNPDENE

## CC(C)=CCc1c2c(c3occ(-c4ccc(O)c(O)c4)c(=O)c3c1O)C=CC(C)(C)O2 [Pomiferin, 3′,4′,5-Trihydroxy-6″,6″-dimethyl-6-(3-methylbut-2-en-1-yl)-6″H-pyrano[2″,3″:7,8]isoflavone]
[1]
  cell proliferation (MTT): had an inhibitory effect on proliferation
[2]
  PBNK cells killing activity (Cr51 release): increased PBNK cells killing activity
[3]
  total CrkL expression: not many differences in total CrkL expression
[3]; vs vehicle
  intracellular pCrkL level: reduced the intracellular pCrkL level
[4]; CrkL + Ab1, Mg2+ and ATP
  inhibition of the higher FRET caused by Ab1 (pCrkL): 55%
[4]; CrkL about 0.4, CrkL+Ab1 about 0.6
  FRET signal: 0.5
[5]; PBMCs from three healthy donors, treated overnight
  IL2 secretion: did not inhibit IL2 secretion
[5]; first donor, compared to DMSO
  IL-2 production: decreased IL-2 production
[6]
  CD147-CAR-NK killing (Cr51 release): increased
[7]
  PBNK cells killing activity (Cr51 release): increased PBNK cells killing activity
[8]; pH 7.4, aqueous buffer
  solubility thermodynamic: < 0.42 µg/mL
[8]; water
  solubility thermodynamic: < 0.42 µg/mL
